Measurements: patent US9988366B2, “Pesticidally active heterocyclic derivatives with sulphur containing substituents” (Syngenta Participations AG, priority 2014, dated 2018)

Experiments:
Assay type in all cases: in vivo
[1] = tested on: Spodoptera littoralis (Egyptian cotton leaf worm); assay: Example B2: Spodoptera littoralis systemic activity (lettuce on agar); conditions: 120 h, systemic via lettuce roots, 5 days after infestation, read-out: effect in at least one of the three categories (mortality, anti-feedancy, or growth inhibition)
Source text: Example B2: Activity Against Spodoptera littoralis (Egyptian Cotton Leaf Worm)
Test compounds were applied by pipette into 24 well plates and mixed with agar. Lettuce seeds were placed on the agar and the multi well plate is closed by another plate which contains also agar. After 7 days the roots have absorbed the compound and the lettuce has grown into the lid plate. The lettuce leaves were now cut off into the lid plate. Spodoptera eggs were pipetted through a plastic stencil on a humid gel blotting paper and the plate closed with it. The samples are checked for mortality, repellent effect, feeding behavior, and growth regulation 5 days after infestation.

[2] = tested on: Myzus persicae (green peach aphid); assay: Example B5: Myzus persicae feeding/residual contact activity, preventive, mixed population (sunflower leaf discs); conditions: foliar, 144 h, mixed population on sunflower leaf discs, 6 DAT
Method: Example B5: Activity Against Myzus persicae (Green Peach Aphid)
(Feeding/Residual Contact Activity, Preventive), Mixed Population
Sunflower leaf discs were placed on agar in a 24-well microtiter plate and sprayed with test solutions. After drying, the leaf discs were infested with an aphid population of mixed ages. After an incubation period of 6 DAT, samples were checked for mortality and special effects (e.g. phytotoxicity).

[3] = tested on: Spodoptera littoralis (Egyptian cotton leaf worm); assay: Example B1: Spodoptera littoralis larvicide, feeding/residual contact activity, preventive (cotton leaf discs); conditions: foliar, 72 h, L1 larvae on sprayed cotton leaf discs, 3 days after treatment, read-out: effect in at least one of the three categories (mortality, anti-feedancy, or growth inhibition)
Source text: Example B1: Activity Against Spodoptera littoralis (Egyptian Cotton Leaf Worm)
(§1) (Larvicide, Feeding/Residual Contact Activity, Preventive)
Cotton leaf discs were placed on agar in a 24-well microtiter plate and sprayed with test solutions. After drying, the leaf discs were infested with five L1 larvae. The samples were checked for mortality, repellent effect, feeding behaviour, and growth regulation 3 days after treatment (DAT). Control of Spodoptera littoralis by a test sample is when at least one of mortality, anti-feedant effect, and growth inhibition is higher than an untreated sample.

[4] = tested on: Diabrotica balteata (corn root worm); assay: Example B4: Diabrotica balteata larvae L2 on maize sprouts, feeding/contact, preventative; conditions: 120 h, 5 days, read-out: activity (larval mortality and growth regulation)
Method: Example B4: Activity Against Diabrotica balteata (Corn Root Worm)
(Larvae L2 on Maize Sprouts, Feeding/Contact, Preventative)
Maize sprouts, placed on an agar layer in 24 well micro titer plates were treated with test solutions by spraying. After drying, the MTPs were infested with L2 larvae (6-10 per well). After an incubation period of 5 days, samples were checked for larval mortality and growth regulation.

[5] = tested on: Tetranychus urticae (two-spotted spider mite); assay: Example B10: Tetranychus urticae, bean leaf disc spray test; conditions: foliar, 192 h
Method: Example B10: Activity Against Tetranychus urticae (Two-Spotted Spider Mite)
Bean leaf discs on agar in 24-well microtiter plates were sprayed with aqueous test solutions prepared from 10′000 ppm DMSO stock solutions. After drying the leaf discs were infested with a mite population of mixed ages. The samples were assessed for mortality on mixed population (mobile stages) 8 days after infestation.

[6] = tested on: Plutella xylostella (diamond back moth); assay: Example B3: Plutella xylostella larvicide, feeding/residual contact activity, preventive (artificial diet); conditions: 120 h, L2 larvae on artificial diet, 5 days, read-out: activity (larval mortality, antifeedant and growth regulation)
Method: Example B3: Activity Against Plutella xylostella (Diamond Back Moth)
as §1
24-well microtiter plate (MTP) with artificial diet was treated with test solutions by pipetting. After drying, the MTPs were infested with L2 larvae (10-15 per well). After an incubation period of 5 days, samples were checked for larval mortality, antifeedant and growth regulation.

[7] = tested on: Myzus persicae (green peach aphid); assay: Example B9: Myzus persicae systemic/feeding activity, curative, mixed population (pea seedling roots); conditions: 144 h, pea seedling roots in test solution, 6 days after introduction
Source text: Example B9: Activity Against Myzus persicae (Green Peach Aphid)
(Systemic/Feeding Activity, Curative), Mixed Population
Roots of pea seedlings, infested with an aphid population of mixed ages, were placed directly in the test solutions. 6 days after introduction, samples were checked for mortality and special effects on the plant.

[8] = tested on: Euschistus heros (neotropical brown stink bug); assay: Example B8: Euschistus heros, soybean leaf spray test; conditions: 120 h, N-2 nymphs on soybean leaf, 5 days after infestation
Method: Example B8: Activity Against Euschistus heros (Neotropical Brown Stink Bug)
Soybean leaf on agar in 24-well microtiter plates were sprayed with aqueous test solutions prepared from 10,000 ppm DMSO stock solutions. After drying the leaf were infested with N-2 nymphs. The samples were assessed for mortality 5 days after infestation.

[9] = tested on: Bemisia tabaci (cotton white fly); assay: Example B7: Bemisia tabaci adulticide contact activity, preventative (cotton leaf discs); conditions: foliar, 168 h, adult white flies on cotton leaf discs, 7 DAT
Method: Example B7: Activity Against Bemisia tabaci (Cotton White Fly)
(Adulticide Contact Activity, Preventative), Adult
Cotton leaf discs were placed on agar in a 24-well microtiter plate and sprayed with test solutions. After drying, the leaf discs were infested with adult white flies. After an incubation period of 7 DAT, samples were checked for mortality and special effects (e.g. phytotoxicity).

[10] = tested on: Myzus persicae (green peach aphid); assay: Example B6: Myzus persicae feeding activity sachet test, mixed population; conditions: 120 h, sucrose solution, 5 days after infestation
Source text: Example B6: Activity Against Myzus persicae (Green Peach Aphid)
(Feeding Activity Sachet Test), Mixed Population
Test compounds were applied by pipette into 24 well plates and mixed with Sucrose solution. The plates were closed with a stretched Parafilm. A plastic stencil with 24 holes is placed onto the plate and infested pea seedlings were placed directly on the Parafilm. The infested plate is closed with a gel blotting paper and another plastic stencil and then turned upside down. 5 days after infestation the samples were checked on mortality. Application rate: 12.5 ppm.

SMILES | percent control (mortality, anti-feedancy or growth inhibition) at 12.5 ppm [1] | mortality at 400 ppm [2] | percent control (mortality, anti-feedancy or growth inhibition) at 400 ppm [3] | mortality at 400 ppm [4] | mortality at 400 ppm [5] | mortality at 400 ppm [6] | mortality at 24 ppm [7] | mortality at 400 ppm [8] | mortality at 400 ppm [9] | mortality at 12.5 ppm [10]
CCS(=O)(=O)c1cc(C(F)(F)F)cnc1-c1ncc(-c2cc(C(F)(F)F)ccn2)n1C [Compound P3] | ≥ 80% | > 80% | ≥ 80% | > 80% | ≥ 80% | – | – | – | – | –
CCS(=O)(=O)c1cc(C(F)(F)F)cnc1-c1ncc(-c2ccc(C(F)(F)F)nc2)n1C [Compound P4] | ≥ 80% | > 80% | ≥ 80% | > 80% | – | > 80% | ≥ 80% | > 80% | > 80% | –
CCS(=O)(=O)c1cc(C(F)(F)F)cnc1-c1ncc(-c2ccnc(C(F)(F)F)c2)n1C [Compound P6] | – | > 80% | ≥ 80% | > 80% | – | > 80% | – | – | > 80% | –
CCS(=O)(=O)c1cc(C(F)(F)F)ccc1-c1ncc(-c2ccc(C(F)(F)F)cc2)n1C [Compound P9] | ≥ 80% | > 80% | ≥ 80% | > 80% | – | > 80% | – | – | > 80% | –
CCS(=O)(=O)c1cc(C(F)(F)F)ccc1-c1ncc(-c2ccc(C(F)(F)F)nc2)n1C [Compound P10] | ≥ 80% | > 80% | ≥ 80% | > 80% | – | > 80% | – | – | > 80% | –
CCS(=O)(=O)c1cc(C(F)(F)F)cnc1-c1ncc(-c2ccc(S(=O)(=O)C(F)(F)F)cc2)n1C [Compound P12] | ≥ 80% | – | ≥ 80% | > 80% | – | > 80% | – | – | – | –
CCS(=O)(=O)c1cc(C(F)(F)F)cnc1-c1ncc(-c2ccc(SC(F)(F)F)cc2)n1C [Compound P15] | ≥ 80% | > 80% | ≥ 80% | > 80% | – | > 80% | – | > 80% | > 80% | –
CCS(=O)(=O)c1cc(C(F)(F)F)cnc1-c1ncc(-c2ccnc(F)c2)n1C [Compound P39] | – | – | ≥ 80% | > 80% | – | > 80% | ≥ 80% | – | – | ≥ 80%
CCS(=O)(=O)c1cc(C(F)(F)F)cnc1-c1ncc(-c2cnc(C(F)(F)F)nc2)n1C [Compound P50] | – | – | ≥ 80% | > 80% | – | > 80% | ≥ 80% | – | – | ≥ 80%
CCS(=O)(=O)c1cc(C(F)(F)F)cnc1-c1ncc(-c2ccc(F)nc2)n1C [Compound P54] | – | – | ≥ 80% | > 80% | – | > 80% | ≥ 80% | – | – | ≥ 80%
